From patent publication US9695168B2 (Incyte Corporation, priority 2014, dated 2017)
pIC50: −log10 of the molar value.

Target: LSD1 (Homo sapiens (Human), UniProt O60341)
Test: LSD1 Histone Demethylase Biochemical Assay (LANCE LSD1/KDM1A demethylase assay)
Settings: 1 nM LSD-1 enzyme, 1 hour preincubation at 25° C., 0.4 μM Biotin-labeled Histone H3 peptide substrate
Method: LSD1 Histone Demethylase Biochemical Assay
LANCE LSD1/KDM1A demethylase assay-10 μL of 1 nM LSD-1 enzyme (ENZO BML-SE544-0050) in the assay buffer (50 mM Tris, pH 7.5, 0.01% Tween-20, 25 mM NaCl, 5 mM DTT) were preincubated for 1 hour at 25° C. with 0.8 μL compound/DMSO dotted in black 384 well polystyrene plates. […] Reactions were stopped by addition of 10 μL 1× LANCE Detection Buffer (PerkinElmer CR97-100) supplemented with 1.5 nM Eu-anti-unmodified H3K4 Antibody (PerkinElmer TRF0404), and 225 nM LANCE Ultra Streptavidin (PerkinElmer TRF102) along with 0.9 mM Tranylcypromine-HCl (Millipore 616431). After stopping the reactions plates were incubated for 30 minutes and read on a PHERAstar FS plate reader (BMG Labtech).

Structure (SMILES) | pIC50
CN1CCC[C@@H](COc2cc(-c3ccc(C#N)cc3)c(-c3ccc(C(C)(C)C#N)nc3)n3cncc23)C1 [Example 132, 4-(5-[6-(1-cyano-1-methylethyl)pyridin-3-yl]-8-{[(3R)-1-methylpiperidin-3-yl]methoxy}imidazo[1,5-a]pyridin-6-yl)benzonitrile] | 7.00 to 7.30
CCc1ccc(-c2c(-c3ccc(C#N)cc3)cc(OC[C@@H]3CCCN(C)C3)c3cncn23)cn1 [Example 133, 4-(5-(6-ethylpyridin-3-yl)-8-{[(3R)-1-methylpiperidin-3-yl]methoxy}imidazo[1,5-a]pyridin-6-yl)benzonitrile] | 7.00 to 7.30
CNC(=O)c1ccc(-c2c(-c3ccc(C#N)cc3)cc(OC[C@@H]3CCCN(C)C3)c3cncn23)cn1 [Example 135, 5-(6-(4-cyanophenyl)-8-{[(3R)-1-methylpiperidin-3-yl]methoxy}imidazo[1,5-a]pyridin-5-yl)-N-methylpyridine-2-carboxamide] | 7.00 to 7.30
Cc1ncc(-c2c(-c3ccc(C#N)cc3)nc(N3CCC(N(C)C)CC3)c3cncn23)cc1C(F)F [Example 140, 4-{5-[5-(difluoromethyl)-6-methylpyridin-3-yl]-8-[4-(dimethylamino)piperidin-1-yl]imidazo[1,5-a]pyrazin-6-yl}benzonitrile] | 7.00 to 7.30
CNC(=O)c1ccc(-c2c(-c3ccc(C#N)cc3)nc(N3CCC(N(C)C)CC3)c3cncn23)cn1 [Example 141, 5-{6-(4-cyanophenyl)-8-[4-(dimethylamino)piperidin-1-yl]imidazo[1,5-a]pyrazin-5-yl}-N-methylpyridine-2-carboxamide] | 6.30 to 7.00
CCN1CCC[C@@H](COc2cc(-c3ccc(C#N)cc3)c(-c3ccc(C)nc3)n3cncc23)C1 [Example 146, 4-[8-{[(3R)-1-ethylpiperidin-3-yl]methoxy}-5-(6-methylpyridin-3-yl)imidazo[1,5-a]pyridin-6-yl]benzonitrile] | 7.00 to 7.30
COCc1cc(-c2c(-c3ccc(C#N)cc3)cc(OC[C@@H]3CCCN(C)C3)c3cncn23)cnc1C [Example 147, 4-(5-[5-(methoxymethyl)-6-methylpyridin-3-yl]-8-{[(3R)-1-methylpiperidin-3-yl]methoxy}imidazo[1,5-a]pyridin-6-yl)benzonitrile] | 7.00 to 7.30
COc1ncc(-c2c(-c3ccc(C#N)cc3)nc(N3CCC(N(C)C)CC3)c3cncn23)cn1 [Example 150, 4-[8-[4-(dimethylamino)piperidin-1-yl]-5-(2-methoxypyrimidin-5-yl)imidazo[1,5-a]pyrazin-6-yl]benzonitrile] | 6.30 to 7.00
CN1CCC[C@@H](COc2cc(-c3ccc(C#N)cc3)c(-c3ccc(C(C)(C)O)nc3)n3cncc23)C1 [Example 151, 4-(5-[6-(1-hydroxy-1-methylethyl)pyridin-3-yl]-8-{[(3R)-1-methylpiperidin-3-yl]methoxy}imidazo[1,5-a]pyridin-6-yl)benzonitrile] | 6.30 to 7.00
CN1CCC[C@@H](COc2cc(-c3ccc(C#N)cc3)c(-c3cnc4c(c3)OCC(=O)N4C)n3cncc23)C1 [Example 152, (R)-4-(5-(4-methyl-3-oxo-3,4-dihydro-2H-pyrido[3,2-b][1,4]oxazin-7-yl)-8-((1-methylpiperidin-3-yl)methoxy)imidazo[1,5-a]pyridin-6-yl)benzonitrile] | 7.00 to 7.30
CN1CCC[C@@H](COc2cc(-c3ccc(C#N)cc3)c(-c3ccc4c(c3)CN(C)C4=O)n3cncc23)C1 [Example 154, 4-(5-(2-methyl-1-oxo-2,3-dihydro-1H-isoindol-5-yl)-8-{[(3R)-1-methylpiperidin-3-yl]methoxy}imidazo[1,5-a]pyridin-6-yl)benzonitrile] | 6.30 to 7.00
CC(C)n1nnc2cc(-c3c(-c4ccc(C#N)cc4)cc(OC[C@@H]4CCCN(C)C4)c4cncn34)cnc21 [Example 155, (R)-4-(5-(3-isopropyl-3H-[1,2,3]triazolo[4,5-b]pyridin-6-yl)-8-((1-methylpiperidin-3-yl)methoxy)imidazo[1,5-a]pyridin-6-yl)benzonitrile] | 6.30 to 7.00
